{"source": "patent US8349880B2", "about": "“Bicyclic compounds for the reduction of beta-amyloid production” (Bristol-Myers Squibb Company, priority 2009, dated 2013)", "data": [{"tested_on": "Aβ1-42 production", "assay": "Cellular assay for inhibition of Aβ1-42 production (H4 APP751 SWE clone 8.20)", "format": "cell-based", "conditions": "19 h, H4 APP751 SWE clone 8.20 cells, 19 h incubation; read-out: Activity Rating (Aβ42 cellular IC50, given as a number)", "method": "(§1) Cellular assays for inhibition of Aβ1-40 and Aβ1-42 production\n(§2) H4 cells stably transfected with APP751 containing the Swedish mutation (H4 APP751 SWE clone 8.20, developed at BMS) were maintained in log phase through twice weekly passage at a 1:20 split. For IC50 determinations, 30 μl cells (1.5×10^4 cells/well) in DMEM media containing 0.0125% BSA (Sigma A8412) were plated directly into 384-well compound plates (Costar 3709) containing 0.1 μl serially diluted compound in DMSO. Following incubation for 19 h in 5% CO2 at 37° C., plates were briefly centrifuged (1000 rpm, 5 min). A 10 μl aliquot from each well was transferred to a second assay plate (Costar 3709) for Aβ40 measurements. Antibody cocktails were freshly prepared by dilution into 40 mM Tris-HCl (pH 7.4) with 0.2% BSA and added to assay plates. For Aβ42 measurements, antibodies specific for the Aβ42 neoepitope (565, developed at BMS; conjugated to the Wallac reagent (Perkin Elmer)) and the N-terminal sequence of Aβ peptide (26D6, developed at SIBIA; conjugated to APC (Perkin Elmer)) were mixed and 20 μl of the mixture was added to each well of the incubated cell plate yielding a final concentration of 0.8 ng/well 565 and 75 ng/well 26D6. For the Aβ40 measurements, antibodies specific for the Aβ40 neoepitope (TSD, developed at BMS; conjugated to the Wallac reagent (Perkin Elmer)) and 26D6 as described above were mixed and 20 μl of the mixture was added to the 10 μl aliquots which had been removed previously from the cell plate yielding a final concentration of 1.6 ng/well TSD and 17.5 ng/well 26D6. Assay plates containing antibodies were sealed with aluminum foil and incubated overnight at 4° C. Signal was determined using a Viewlux counter (Perkin Elmer) and IC50 values determined using curve fitting in CurveMaster (Excel Fit based).", "units": {"IC50": "nM"}, "values": [{"smiles": "COc1cc(Nc2nc3n(n2)CCCC[C@@H]3c2ccc(F)cc2)c(F)cc1-n1cnc(C)n1", "note": "(single isomer, unassigned) [Example 30]", "IC50": 47}, {"smiles": "COc1cc(Nc2nc3n(n2)CCCC[C@H]3c2cc(F)c(F)c(F)c2)ccc1-n1cnc(Cl)c1", "note": "(single isomer, unassigned) [Example 51]", "IC50": 4}, {"smiles": "Cc1ncn(-c2ccc(Nc3nc4n(n3)CCCC[C@H]4c3ccc(OC(F)(F)F)cc3)cc2F)n1", "note": "(single isomer, unassigned) [Example 97]", "IC50": 9}, {"smiles": "COc1cc(Nc2nc3n(n2)CCCC[C@H]3c2ccc(OCC(F)(F)F)cc2)ccc1-n1cnc(Cl)c1", "note": "(single isomer, unassigned) [Example 106]", "IC50": 5}, {"smiles": "COc1cc(Nc2nc3n(n2)CCCC[C@@H]3c2ccc(OCC(F)(F)F)cc2)c(F)cc1-n1cnc(C)n1", "note": "(single isomer, unassigned) [Example 118]", "IC50": 107}, {"smiles": "C=C1CCn2nc(Nc3ccc(-n4cnc(Cl)c4)c(OC)c3)nc2[C@H](c2ccc(F)cc2)C1", "note": "(single isomer, unassigned) [Example 134]", "IC50": 3}, {"smiles": "COc1cc(Nc2nc3n(n2)CC[C@](C)(O)C[C@@H]3c2ccc(F)cc2)ccc1-n1cnc(Cl)c1", "note": "(single isomer, unassigned) [Example 149, 2,2,2-trifluoroacetate]", "IC50": 2}]}, {"tested_on": "Aβ1-42 production", "assay": "Cellular assay for inhibition of Aβ1-42 production (H4 APP751 SWE clone 8.20)", "format": "cell-based", "conditions": "19 h, H4 APP751 SWE clone 8.20 cells, 19 h incubation; read-out: Activity Rating (based on Aβ42 cellular IC50 values)", "method": "as §1, §2", "units": {"IC50": "nM"}, "values": [{"smiles": "Cc1ncnn1-c1ccc(Nc2nc3n(n2)CCC[C@@H]3c2ccc(F)cc2)cc1F", "note": "(single isomer, unassigned) [Example 15]", "IC50": "100 to 1000"}, {"smiles": "COc1cc(Nc2nc3n(n2)CCCC[C@H]3c2ccc(F)cc2)ccc1-n1cnc(Cl)c1", "note": "(single isomer, unassigned) [Example 17]", "IC50": "< 10"}, {"smiles": "COc1cc(Nc2nc3n(n2)CCCC[C@@H]3c2ccc(F)cc2)ccc1-n1cnc(Cl)c1", "note": "(single isomer, unassigned) [Example 18]", "IC50": "10 to 100"}, {"smiles": "COc1cc(Nc2nc3n(n2)CCCC[C@H]3c2ccc(Cl)cc2Cl)ccc1-n1cnc(Cl)c1", "note": "(single isomer, unassigned) [Example 20]", "IC50": "< 10"}, {"smiles": "COc1cc(Nc2nc3n(n2)CCCC[C@@H]3c2ccc(Cl)cc2Cl)ccc1-n1cnc(Cl)c1", "note": "(single isomer, unassigned) [Example 21]", "IC50": "< 10"}, {"smiles": "COc1cc(Nc2nc3n(n2)CCCC[C@@H]3c2ccc(F)c(F)c2)ccc1-n1cnc(Cl)c1", "note": "(single isomer, unassigned) [Example 24]", "IC50": "< 10"}, {"smiles": "Cc1ncn(-c2ccc(Nc3nc4n(n3)CCCC[C@H]4c3ccc(F)cc3)cc2F)n1", "note": "(single isomer, unassigned) [Example 26]", "IC50": "10 to 100"}, {"smiles": "Cc1ncn(-c2ccc(Nc3nc4n(n3)CCCC[C@@H]4c3ccc(F)cc3)cc2F)n1", "note": "(single isomer, unassigned) [Example 27]", "IC50": "10 to 100"}, {"smiles": "COc1cc(Nc2nc3n(n2)CCCC[C@H]3c2ccc(F)cc2F)ccc1-n1cnc(Cl)c1", "note": "(single isomer, unassigned) [Example 36]", "IC50": "< 10"}, {"smiles": "COc1cc(Nc2nc3n(n2)CCCC[C@@H]3c2ccc(F)cc2F)ccc1-n1cnc(Cl)c1", "note": "(single isomer, unassigned) [Example 37]", "IC50": "< 10"}, {"smiles": "COc1cc(Nc2nc3n(n2)CCCC[C@H]3c2cc(F)cc(F)c2)ccc1-n1cnc(Cl)c1", "note": "(single isomer, unassigned) [Example 39]", "IC50": "< 10"}, {"smiles": "COc1cc(Nc2nc3n(n2)CCCC[C@@H]3c2cc(F)cc(F)c2)ccc1-n1cnc(Cl)c1", "note": "(single isomer, unassigned) [Example 40]", "IC50": "10 to 100"}, {"smiles": "COc1cc(Nc2nc3n(n2)CCCC[C@H]3c2cccc(F)c2)ccc1-n1cnc(Cl)c1", "note": "(single isomer, unassigned) [Example 45]", "IC50": "< 10"}, {"smiles": "COc1cc(Nc2nc3n(n2)CCCC[C@@H]3c2cccc(F)c2)ccc1-n1cnc(Cl)c1", "note": "(single isomer, unassigned) [Example 46]", "IC50": "10 to 100"}, {"smiles": "COc1cc(Nc2nc3n(n2)CCCC[C@@H]3c2cc(F)c(F)c(F)c2)ccc1-n1cnc(Cl)c1", "note": "(single isomer, unassigned) [Example 52]", "IC50": "< 10"}, {"smiles": "COc1cc(Nc2nc3n(n2)CCCC[C@H]3c2cccc(Cl)c2)ccc1-n1cnc(Cl)c1", "note": "(single isomer, unassigned) [Example 54]", "IC50": "< 10"}, {"smiles": "COc1cc(Nc2nc3n(n2)CCCC[C@@H]3c2cccc(Cl)c2)ccc1-n1cnc(Cl)c1", "note": "(single isomer, unassigned) [Example 55]", "IC50": "< 10"}, {"smiles": "COc1cc(Nc2nc3n(n2)CCCC[C@H]3c2ccccc2F)ccc1-n1cnc(Cl)c1", "note": "(single isomer, unassigned) [Example 58]", "IC50": "< 10"}, {"smiles": "COc1cc(Nc2nc3n(n2)CCCC[C@@H]3c2ccccc2F)ccc1-n1cnc(Cl)c1", "note": "(single isomer, unassigned) [Example 59]", "IC50": "< 10"}, {"smiles": "COc1cc(Nc2nc3c(s2)CCC[C@H]3c2ccccc2)ccc1-n1cnc(Cl)c1", "note": "(single isomer, unassigned) [Example 69]", "IC50": "10 to 100"}, {"smiles": "COc1cc(Nc2nc3c(s2)CCC[C@@H]3c2ccccc2)ccc1-n1cnc(Cl)c1", "note": "(single isomer, unassigned) [Example 70]", "IC50": "100 to 1000"}, {"smiles": "COc1cc(Nc2nc3n(n2)CCCC[C@H]3c2ccc(F)cc2)ccc1-n1cnc(Cl)n1", "note": "(single isomer, unassigned) [Example 87]", "IC50": "< 10"}, {"smiles": "COc1cc(Nc2nc3n(n2)CCCC[C@@H]3c2ccc(F)cc2)ccc1-n1cnc(Cl)n1", "note": "(single isomer, unassigned) [Example 88]", "IC50": "10 to 100"}, {"smiles": "Cc1ncnn1-c1ccc(Nc2nc3n(n2)CCCC[C@H]3c2ccc(F)cc2)cc1F", "note": "(single isomer, unassigned) [Example 94]", "IC50": "10 to 100"}, {"smiles": "Cc1ncn(-c2ccc(Nc3nc4n(n3)CCCC[C@@H]4c3ccc(OC(F)(F)F)cc3)cc2F)n1", "note": "(single isomer, unassigned) [Example 98]", "IC50": "10 to 100"}, {"smiles": "Cc1ncnn1-c1ccc(Nc2nc3n(n2)CCCC[C@H]3c2ccc(OC(F)(F)F)cc2)cc1F", "note": "(single isomer, unassigned) [Example 100]", "IC50": "< 10"}, {"smiles": "Cc1ncnn1-c1ccc(Nc2nc3n(n2)CCCC[C@@H]3c2ccc(OC(F)(F)F)cc2)cc1F", "note": "(single isomer, unassigned) [Example 101]", "IC50": "10 to 100"}, {"smiles": "COc1cc(Nc2nc3n(n2)CCCC[C@H]3c2ccc(OC(C)C)cc2)ccc1-n1cnc(Cl)c1", "note": "(single isomer, unassigned) [Example 103]", "IC50": "< 10"}, {"smiles": "COc1cc(Nc2nc3n(n2)CCCC[C@@H]3c2ccc(OC(C)C)cc2)ccc1-n1cnc(Cl)c1", "note": "(single isomer, unassigned) [Example 104]", "IC50": "10 to 100"}, {"smiles": "COc1cc(Nc2nc3n(n2)CCCC[C@@H]3c2ccc(OCC(F)(F)F)cc2)ccc1-n1cnc(Cl)c1", "note": "(single isomer, unassigned) [Example 107]", "IC50": "10 to 100"}, {"smiles": "Cc1ncnn1-c1ccc(Nc2nc3n(n2)CCCC[C@H]3c2ccc(OCC(F)(F)F)cc2)cc1F", "note": "(single isomer, unassigned) [Example 111]", "IC50": "< 10"}, {"smiles": "Cc1ncnn1-c1ccc(Nc2nc3n(n2)CCCC[C@@H]3c2ccc(OCC(F)(F)F)cc2)cc1F", "note": "(single isomer, unassigned) [Example 112]", "IC50": "10 to 100"}, {"smiles": "Cc1ncn(-c2ccc(Nc3nc4n(n3)CCCC[C@H]4c3ccc(OCC(F)(F)F)cc3)cc2F)n1", "note": "(single isomer, unassigned) [Example 114]", "IC50": "10 to 100"}, {"smiles": "Cc1ncn(-c2ccc(Nc3nc4n(n3)CCCC[C@@H]4c3ccc(OCC(F)(F)F)cc3)cc2F)n1", "note": "(single isomer, unassigned) [Example 115]", "IC50": "10 to 100"}, {"smiles": "Cc1ncnn1-c1ccc(Nc2nc3n(n2)CCCC[C@H]3c2ccc(OCC(F)F)cc2)cc1F", "note": "(single isomer, unassigned) [Example 120]", "IC50": "10 to 100"}, {"smiles": "Cc1ncnn1-c1ccc(Nc2nc3n(n2)CCCC[C@@H]3c2ccc(OCC(F)F)cc2)cc1F", "note": "(single isomer, unassigned) [Example 121]", "IC50": "100 to 1000"}, {"smiles": "Cc1ncn(-c2ccc(Nc3nc4n(n3)CCC[C@H]4c3ccc(OC(F)(F)F)cc3)cc2F)n1", "note": "(single isomer, unassigned) [Example 123]", "IC50": "100 to 1000"}, {"smiles": "Cc1ncn(-c2ccc(Nc3nc4n(n3)CCC[C@@H]4c3ccc(OC(F)(F)F)cc3)cc2F)n1", "note": "(single isomer, unassigned) [Example 124]", "IC50": "10 to 100"}, {"smiles": "COc1cc(Nc2nc3n(n2)CCCC[C@@H]3c2ccc(OC(F)(F)F)cc2)ccc1-n1cnc(Cl)c1", "note": "(single isomer, unassigned) [Example 125]", "IC50": "< 10"}, {"smiles": "C=C1CCn2nc(Nc3ccc(-n4cnc(Cl)c4)c(OC)c3)nc2[C@@H](c2ccc(F)cc2)C1", "note": "(single isomer, unassigned) [Example 135]", "IC50": "10 to 100"}, {"smiles": "COc1cc(Nc2nc3n(n2)CC[C@@](C)(O)C[C@@H]3c2ccc(F)cc2)ccc1-n1cnc(Cl)c1", "note": "(single isomer, unassigned) [Example 148]", "IC50": "< 10"}]}, {"tested_on": "Aβ1-42 production", "assay": "Cellular assay for inhibition of Aβ1-42 production (H4 APP751 SWE clone 8.20)", "format": "cell-based", "conditions": "H4 APP751 SWE clone 8.20 cells, 19 h incubation; read-out: Activity Rating (based on Aβ42 cellular IC50 values)", "method": "as §1, §2", "units": {"IC50": "nM"}, "values": [{"smiles": "COc1cc(Nc2nc3n(n2)CCCC[C@@H]3c2ccc(OC(F)(F)F)cc2)ccc1-n1cnc(Cl)c1", "note": "(single isomer, unassigned) [Example 126]", "IC50": "10 to 100"}]}]}
